The target in assay [1] is Zea mays EPSPS variant WT-FS-E2 (102A 302S 391G 438R I208L) (Zea mays, UniProt O24566, E301S/E390G/G101A/I207L/V437R). The assay is described as follows: EPSPS substrate saturation kinetics, WT-FS-E2. The assay is classed as biochemical. How it is done:
(§1) EPSPS activity was determined by quantifying the phosphate generated from the EPSPS reaction. Release of inorganic phosphate was coupled to reaction with 2-amino-6-mercapto-7-methylpurine ribonucleoside, catalyzed by purine-nucleoside phosphorylase (M R Webb, Proc. Natl. Acad. Sci. 89:4884-4887, 1992). The absorbance change that occurs was monitored at 360 nm, where the extinction is 11,200 M^−1 cm^−1, with a Spectramax plate reader (Molecular Devices). To determine kinetic parameters, the varied substrate was present at seven concentrations (the eighth being the blank, containing no substrate) ranging from 4 to 400 uM and the unvaried substrate present at saturation. […] Reactions were monitored with a Spectramax plate reader. […] KI was then calculated from the following form of the Michaelis-Menten equation for competitive inhibition: KI=KM[I]/(KM app−KM) KM approximates the dissociation constant of the enzyme-substrate complex while kcat is the rate of conversion of substrate to product when the substrate concentration is saturating. kcat/KM is a widely accepted parameter for catalytic efficiency when substrate concentration is low (˜KM). […] The parameter kcat/KM×KI is used to quantify both catalytic efficiency and insensitivity and thus the overall fitness of the enzyme. […]

Assay [2] addresses T1, Zea mays EPSPS variant Zm-H6 (868-H6) with R61Y (H6-R61Y) (Zea mays, UniProt O24566, A1R/A3W/A415G/A71Q/D401G/E301S/E390G/G101A/I207L/K83R/L97C/R60Y/T278A/T360S/T440Q/V437R).
T1 construct: 868-H6 plus R61Y; E. coli BL21(DE3), Ni-NTA purified
T1 sequence (O24566 with tags, fused parts or gaps A1R/A3W/R60Y/A71Q/K83R/L97C/G101A/I207L/T278A/E301S/T360S/E390G/D401G/A415G/V437R/T440Q): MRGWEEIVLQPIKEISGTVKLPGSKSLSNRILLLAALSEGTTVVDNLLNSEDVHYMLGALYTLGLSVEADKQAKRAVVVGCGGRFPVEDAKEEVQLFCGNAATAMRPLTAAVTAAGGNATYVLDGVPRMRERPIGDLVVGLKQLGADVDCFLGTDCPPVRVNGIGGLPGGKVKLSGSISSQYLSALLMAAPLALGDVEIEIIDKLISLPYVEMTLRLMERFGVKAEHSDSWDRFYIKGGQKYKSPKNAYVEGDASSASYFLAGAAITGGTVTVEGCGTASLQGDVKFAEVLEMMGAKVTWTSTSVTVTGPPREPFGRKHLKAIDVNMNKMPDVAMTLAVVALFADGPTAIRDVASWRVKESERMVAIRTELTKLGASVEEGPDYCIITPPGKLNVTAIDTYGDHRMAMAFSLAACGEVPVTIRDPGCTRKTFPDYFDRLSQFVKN
The assay can be described thus: Substrate saturation kinetic analysis with glyphosate, H6-R61Y. The class given is biochemical.

Assay [3] relates to Arabidopsis thaliana Col-0. The assay can be described thus: Glyphosate spray (Touchdown) tolerance of Arabidopsis transformed with maize EPSPS constructs. The assay is classed as in vivo.
Assay [4] addresses Zea mays EPSPS variant 311S (Zea mays, UniProt O24566, P310S). The assay is described as follows: EPSPS reaction rate with or without 10 uM glyphosate, 311S. Note: 50 µM PEP and S3P. The following applies: pH 7; read-out: Reaction rate with 10 μM glyph, % no glyph. The class given is biochemical.
Assay [5] addresses Zea mays EPSPS variant 4R (Zea mays, UniProt O24566, A3R). The assay is described as follows: EPSPS reaction rate with or without 10 uM glyphosate, 4R. Note: 50 µM PEP and S3P. The assay is classed as biochemical. The following applies: pH 7; read-out: Reaction rate with 10 μM glyph, % no glyph.
The target in assay [6] is Sorghum halepense EPSPS, native, SEQ ID NO:8 (Sorghum halepense, UniProt H6T5X2). The assay can be described thus: EPSPS substrate saturation kinetics, native sorghum. The class given is biochemical. The protocol: as §1
Chain of Sorghum halepense EPSPS, native, SEQ ID NO:8 (H6T5X2 entry or part of it): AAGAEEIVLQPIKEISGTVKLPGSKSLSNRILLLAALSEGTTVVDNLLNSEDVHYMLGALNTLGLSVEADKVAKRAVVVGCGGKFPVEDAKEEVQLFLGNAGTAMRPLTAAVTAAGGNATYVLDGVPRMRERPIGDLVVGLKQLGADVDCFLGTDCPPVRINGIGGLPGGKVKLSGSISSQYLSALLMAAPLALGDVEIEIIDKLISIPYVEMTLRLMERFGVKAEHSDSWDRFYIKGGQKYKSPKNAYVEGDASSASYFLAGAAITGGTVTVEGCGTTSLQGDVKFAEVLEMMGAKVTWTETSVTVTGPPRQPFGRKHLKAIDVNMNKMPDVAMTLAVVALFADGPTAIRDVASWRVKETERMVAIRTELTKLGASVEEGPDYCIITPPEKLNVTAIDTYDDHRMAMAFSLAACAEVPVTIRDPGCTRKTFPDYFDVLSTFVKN
The target in assay [7] is Oryza sativa EPSPS with 868-H6 mutations, SEQ ID NO:11 (Oryza sativa, UniProt Q93VK6, A482G/A67R/A69W/D368S/D468G/E457G/G168A/I274L/K149R/L164C/T345A/T427S/T507Q/V137Q/V504R). The assay can be described thus: EPSPS substrate saturation kinetics, rice H6. The class given is biochemical. The protocol: as §1
Chain of Oryza sativa EPSPS with 868-H6 mutations, SEQ ID NO:11 (Q93VK6 64-511 with the stated changes): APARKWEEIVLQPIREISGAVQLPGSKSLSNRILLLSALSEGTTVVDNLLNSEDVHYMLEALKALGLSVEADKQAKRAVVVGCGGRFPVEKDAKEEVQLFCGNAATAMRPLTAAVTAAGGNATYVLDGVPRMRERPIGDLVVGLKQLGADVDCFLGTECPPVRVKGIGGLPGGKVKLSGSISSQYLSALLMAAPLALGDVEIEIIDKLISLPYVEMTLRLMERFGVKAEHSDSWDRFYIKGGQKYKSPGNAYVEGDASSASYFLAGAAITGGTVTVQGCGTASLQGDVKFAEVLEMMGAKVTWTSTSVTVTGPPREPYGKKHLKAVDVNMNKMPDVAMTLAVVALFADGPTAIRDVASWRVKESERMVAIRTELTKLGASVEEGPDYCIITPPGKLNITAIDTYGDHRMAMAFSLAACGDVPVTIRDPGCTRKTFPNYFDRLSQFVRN
Where [8] appears, read: PEP as substrate, glyphosate as inhibitor.

Chain of Zea mays EPSPS variant WT-FS-E2 (102A 302S 391G 438R I208L) (O24566 entry or part of it G101A/I207L/E301S/E390G/V437R): as the sequence (H6T5X2 entry or part of it) above, with A1M, N61R, V72A, G102A, I161V, I208L, E302S, Q313E, E391G, V438R counted along it
Chain of Zea mays EPSPS variant 4R (O24566 entry or part of it A3R): as the sequence (H6T5X2 entry or part of it) above, with A1M, A4R, N61R, V72A, I161V, Q313E counted along it
Chain of Zea mays EPSPS variant 311S (O24566 entry or part of it P310S): as the sequence (H6T5X2 entry or part of it) above, with A1M, N61R, V72A, I161V, P311S, Q313E counted along it

In general, Ki refers to the equilibrium dissociation constant of an inhibitor or competing ligand from its target. `O=C(O)CNCP(=O)(O)O` [glyphosate, N-phosphonomethylglycine]: the Ki in assay [1] was found to be 663 µM; in assay [2], 309 µM; in assay [6], 0.2 µM; in assay [7], 907 µM. In addition, the “(kcat/KM)*KI” value in assay [1] (setting [8]) is recorded as 4512; in assay [2] (substrate saturation, H6-R61Y), 1640; in assay [6] (setting [8]) it was 33; in assay [7] (setting [8]) it was 9200. The “plant injury and growth inhibition compared to unsprayed controls” value in assay [3] (plants transformed with UbiQ10 promoter and H6 variant) is listed as “no visible injury or growth inhibition”. Further, the growth after treatment result in assay [3] (untransformed plants, 1.26 kg/Ha spray) is given as “did not grow at all”. Besides, the plant injury entry in assay [3] (untransformed plants, 1.26 kg/Ha spray, by 10 days) was “chlorosis and imminent necrosis”. Also, the activity at 10 µM in assay [4] turned out to be 4.37%; in assay [5], 7.38%.

Source of the values: patent publication US11549123B2, “Plant EPSP synthases and methods of use” (PIONEER HI-BRED INTERNATIONAL, INC., priority 2015, dated 2023).
